Here are results for three compounds from ChEMBL document CHEMBL1130851, “Synthesis and biological evaluation of a series of 2'-fluorinated-2',3'-dideoxy-2',3'-didehydro-(L)-nucleosides” (Bioorg Med Chem Lett, 1998).

The subject of assay [1] is Human immunodeficiency virus. Nature of the assay: Compound concentration required to inhibit the viral cell proliferation by 50% against HIV; Range = 0.3-0.5. Format: functional, organism-based. The following applies: Human immunodeficiency virus 1.
Assay [2] is described as follows: Compound was tested for anti-HIV activity in MT-2/ IIIB cells and the ratio of the drug concentration (ID50) required to inhibit cell growth was reported. Format: functional, Homo sapiens.
For a further assay, the system named is CCRF-CEM. Nature of the assay: Compound concentration required to inhibit cell growth by 50% against CEM cells. In kind it is functional. The following applies: Homo sapiens, read-out: ID50 (the source's name).
For the next assay, the system named is Hepatitis B virus. Nature of the assay: Compound concentration required to inhibit the viral cell proliferation by 50% against HBV. Format: functional, organism-based.
The subject of assay [3] is Human immunodeficiency virus. Nature of the assay: Compound concentration required to inhibit the viral cell proliferation by 50% against HIV; Range = 0.1-0.2. In kind it is functional, organism-based. The conditions noted are these: Human immunodeficiency virus 1.
For assay [4], the system named is Human immunodeficiency virus. Nature of the assay: Compound concentration required to inhibit the viral cell proliferation by 50% against HIV; Range = 2-3. In kind it is functional, organism-based. The conditions noted are these: Human immunodeficiency virus 1.

Regarding `Nc1nc(=O)n([C@@H]2CC[C@H](CO)O2)cc1F`, the EC50 (usually the midpoint of the concentration-response curve) in assay [1] turned out to be 300 nM; with Hepatitis B virus, 36 nM. Besides, in assay [2], the ID50 ratio is reported as more than 100. Also, the IC50 in the assay with CCRF-CEM is 67000 nM.

Turning to `Nc1nc(=O)n([C@@H]2C=C[C@H](CO)O2)cc1F` [ELVUCITABINE], the EC50 in assay [3] worked out at 100 nM; with Hepatitis B virus, 8 nM. In addition, the ID50 ratio in assay [2] came out at 9. Moreover, the IC50 in the assay with CCRF-CEM turned out to be 7000 nM.

For the compound `Nc1ccn([C@@H]2CS[C@H](CO)O2)c(=O)n1` [LAMIVUDINE], the EC50 in assay [4] turned out to be 2000 nM; in the assay with Hepatitis B virus, 30 nM. Further, in assay [2], the ID50 ratio was more than 100. Further, the IC50 in the assay with CCRF-CEM stood at 50000 nM.
